This experiment has as its target T1, Human Polymorphonuclear Leukocyte Elastase (Homo sapiens, UniProt P08246).
T1 construct: Crude extract of human polymorphonuclear leukocytes (PMN) containing elastase activity; from tissue; host or cells: human polymorphonuclear leukocytes (crude extract)
T1 sequence (P08246 30-267): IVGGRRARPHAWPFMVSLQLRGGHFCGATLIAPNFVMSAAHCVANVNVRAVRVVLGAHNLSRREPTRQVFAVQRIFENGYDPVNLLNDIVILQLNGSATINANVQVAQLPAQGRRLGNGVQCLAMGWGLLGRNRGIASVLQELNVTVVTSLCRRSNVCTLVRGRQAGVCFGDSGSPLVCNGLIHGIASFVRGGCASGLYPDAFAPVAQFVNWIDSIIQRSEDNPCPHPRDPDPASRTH
The experiment in a line: Enzyme assay for inhibition of human polymorphonuclear leukocyte elastase via hydrolysis of Boc-AAPAN or Boc-AAPVN. It is filed as biochemical. Particulars: expressed to the nearest thousand; for kinact/KI: pH 7.5, second order rate constant for inactivation of the enzyme, read-out: Kobs/[I]; for Kobs/[I]: second order rate constant for inactivation of the enzyme, pH 7.5. The essentials: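 Crude human PMN extract as enzyme source, with 0.2 mM Boc-AAPAN in 0.05M TES buffer pH 7.5. Inhibitors in DMSO were added to substrate before the extract, and rate was followed as ΔOD/min at 410 mµ. Values are kobs/I, the second-order inactivation rate constant (per mole per second).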

This is an account of results in patent EP0595557A1, “New substituted azetidinones as anti-inflammatory and antidegenerative agents” (MERCK & CO. INC., priority 1992, dated 1994).

For the molecule `CCC[C@@H](NC(=O)N1C(=O)C(CC)(CC)[C@@H]1Oc1ccc(CC(=O)N(CC)CC)cc1)c1ccc(C)c(C(=O)N2CCOCC2)c1` [Compound 270], the kinact/KI was 740000 M⁻¹ s⁻¹. Same read-out and setting: then `CCC[C@@H](NC(=O)N1C(=O)C(CC)(CC)[C@@H]1Oc1ccc(CC(=O)N(CCC)CCC)cc1)c1ccc(C)c(C(=O)N2CCOCC2)c1` [Compound 271], with 826000 M⁻¹ s⁻¹; and `CCC[C@@H](NC(=O)N1C(=O)C(CC)(CC)[C@@H]1Oc1ccc(C(=O)N(C)CCN(C)C)cc1)c1ccc(CC)c(C(=O)N2CCOCC2)c1` [Compound 272], with 2.42e+06 M⁻¹ s⁻¹. On the same count and under the same terms, then `CCCCN(C)C(=O)c1ccc(O[C@@H]2N(C(=O)N[C@H](CCC)c3ccc(CC)c(C(=O)N4CCOCC4)c3)C(=O)C2(CC)CC)cc1` [Compound 273], with 3.26e+06 M⁻¹ s⁻¹. Same read-out and setting: then `CCC[C@@H](NC(=O)N1C(=O)C(CC)(CC)[C@@H]1Oc1ccc(CC(N)=O)cc1)c1ccc(C(=O)N2CCOCC2)cc1` [Compound 274], with 430000 M⁻¹ s⁻¹. With `CCC[C@@H](NC(=O)N1C(=O)C(CC)(CC)[C@@H]1Oc1ccc(CC(=O)N(C)CCN(C)C)cc1)c1ccc(C(=O)N2CCOCC2)cc1` [Compound 275], the kinact/KI stood at 290000 M⁻¹ s⁻¹. Still for that read-out and setting: then `CCC[C@@H](NC(=O)N1C(=O)C(CC)(CC)[C@@H]1Oc1ccc(CC(=O)OC)cc1)c1ccc(C(=O)N2CCOCC2)cc1` [Compound 276], with 440000 M⁻¹ s⁻¹. Still for that read-out and setting: then `CCC[C@@H](NC(=O)N1C(=O)C(CC)(CC)[C@@H]1Oc1ccc(C(=O)N(C)CCN(C)C)cc1)c1ccc(C(=O)N2CCOCC2)cc1` [Compound 277], with 548000 M⁻¹ s⁻¹; and `CCC[C@@H](NC(=O)N1C(=O)C(CC)(CC)[C@@H]1Oc1ccc(C(=O)OCCN(C)C)cc1)c1ccc(C(=O)N2CCOCC2)cc1` [Compound 278], with 135000 M⁻¹ s⁻¹. On the same count and under the same terms, as for `CCC[C@@H](NC(=O)N1C(=O)C(CC)(CC)[C@@H]1Oc1ccc(C(=O)N(CC)CC)cc1)c1ccc(C(=O)N2CCOCC2)cc1` [Compound 279], the figure is 566000 M⁻¹ s⁻¹; as for `CCC[C@@H](NC(=O)N1C(=O)C(CC)(CC)[C@@H]1Oc1ccc(C(=O)N2CCOCC2)cc1)c1ccc(C(=O)N2CCOCC2)cc1` [Compound 280], 577000 M⁻¹ s⁻¹; as for `CCC[C@@H](NC(=O)N1C(=O)C(CC)(CC)[C@@H]1Oc1ccc(CC(=O)N2CCOCC2)cc1)c1ccc(C(=O)O)cc1` [Compound 281], 62000 M⁻¹ s⁻¹. In the case of `CCC[C@@H](NC(=O)N1C(=O)C(CC)(CC)[C@@H]1Oc1ccc(CC(=O)N2CCOCC2)cc1)c1ccc(C(=O)OCCN(C)C)cc1` [Compound 282], the kinact/KI came out at 421000 M⁻¹ s⁻¹. As to `CCC[C@@H](NC(=O)N1C(=O)C(CC)(CC)[C@@H]1Oc1ccc(CC(=O)N2CCOCC2)cc1)c1ccc(C(=O)N(C)CCN(C)C)cc1` [Compound 283], the kinact/KI worked out at 393000 M⁻¹ s⁻¹. The same measure, in the same setting: as for `CCC[C@@H](NC(=O)N1C(=O)C(CC)(CC)[C@@H]1Oc1ccc(CC(=O)N(C)CCN(C)C)cc1)c1ccc(O)cc1` [Compound 284], the figure is 309000 M⁻¹ s⁻¹.

As to `CCC[C@@H](NC(=O)N1C(=O)C(CC)(CC)[C@@H]1Oc1ccc(CC(=O)N(C)CCN(C)C)cc1)c1ccc(OC)cc1` [Compound 285], the “Kobs/[I]” value is reported as 566,000 per mole per second. `CCC[C@@H](NC(=O)N1C(=O)C(CC)(CC)[C@@H]1Oc1ccc(C(=O)N(C)CCN(C)C)cc1)c1ccc(C(=O)N(C)C)cc1` [Compound 286]: the kinact/KI amounted to 551000 M⁻¹ s⁻¹.

`CCC[C@@H](NC(=O)N1C(=O)C(CC)(CC)[C@@H]1Oc1ccc(C(=O)N(C)CCN(C)C)cc1)c1ccc(C(=O)O)cc1` [Compound 287]: the kinact/KI was 113000 M⁻¹ s⁻¹. Consider `CCC[C@@H](NC(=O)N1C(=O)C(CC)(CC)[C@@H]1Oc1ccc(C(=O)N(C)CCN(C)C)cc1)c1ccc(CO)cc1` [Compound 288], for which the kinact/KI was 854000 M⁻¹ s⁻¹. Still for that read-out and setting: as for `CCC[C@@H](NC(=O)N1C(=O)C(CC)(CC)[C@@H]1Oc1ccc(CC(=O)N(C)CCN(C)C)cc1)c1ccc(OC)cc1` [Compound 289], the figure is 754000 M⁻¹ s⁻¹; as for `CCC[C@@H](NC(=O)N1C(=O)C(CC)(CC)[C@@H]1Oc1ccc(C(=O)N(C)CCN(C)C)cc1)c1ccc(OC)cc1` [Compound 290], 1.01e+06 M⁻¹ s⁻¹.

Consider `CCC[C@@H](NC(=O)N1C(=O)C(CC)(CC)[C@@H]1Oc1ccc(C(=O)N(C)CCN(C)C)cc1)c1cccc(OC)c1` [Compound 291], for which the kinact/KI amounted to 1.75e+06 M⁻¹ s⁻¹. On the same count and under the same terms, as for `CCC[C@@H](NC(=O)N1C(=O)C(CC)(CC)[C@@H]1Oc1ccc(CC(=O)N2CCOCC2)cc1)c1ccc(C)c(COC(=O)N(CC)CC)c1` [Compound 292], the figure is 807000 M⁻¹ s⁻¹. In the case of `CCC[C@@H](NC(=O)N1C(=O)C(CC)(CC)[C@@H]1Oc1ccc(CC(=O)N(CC)CC)cc1)c1ccc(C)c(C(=O)N(CCC)CCC)c1` [Compound 293], the kinact/KI worked out at 457000 M⁻¹ s⁻¹. Same read-out and setting: as for `CCC[C@@H](NC(=O)N1C(=O)C(CC)(CC)[C@@H]1Oc1ccc(CC(=O)N2CCOCC2)cc1)c1ccc(C)c(C(=O)N(CCC)CCC)c1` [Compound 294], the figure is 255000 M⁻¹ s⁻¹; as for `CCC[C@@H](NC(=O)N1C(=O)C(CC)(CC)[C@@H]1Oc1ccc(C(=O)N(C)CCN(C)C)cc1)c1ccc(C#N)cc1` [Compound 295], 846000 M⁻¹ s⁻¹; as for `CCC[C@@H](NC(=O)N1C(=O)C(CC)(CC)[C@@H]1Oc1ccc(C(=O)N(C)CCN(C)Cc2ccccc2)cc1)c1ccc(OCC)cc1` [Compound 296], 776000 M⁻¹ s⁻¹. For `CCC[C@@H](NC(=O)N1C(=O)C(CC)(CC)[C@@H]1Oc1ccc(C(=O)N2CCN(C)CC2)cc1)c1ccc(OC)cc1` [Compound 298], the kinact/KI came to 1.84e+06 M⁻¹ s⁻¹. With `CCC[C@@H](NC(=O)N1C(=O)C(CC)(CC)[C@@H]1Oc1ccc(C(=O)N(C)CCN(C)C)cc1)c1ccc(Cl)cc1` [Compound 299], the kinact/KI was found to be 1.48e+06 M⁻¹ s⁻¹. On the same count and under the same terms, then `CCC[C@@H](NC(=O)N1C(=O)C(CC)(CC)[C@@H]1Oc1ccc(C(=O)N(C)CCN(CC)CC)cc1)c1ccc(Cl)cc1` [Compound 300], with 1.28e+06 M⁻¹ s⁻¹; and `CCC[C@@H](NC(=O)N1C(=O)C(CC)(CC)[C@@H]1Oc1ccc(C(=O)N(C)CCN(C(C)C)C(C)C)cc1)c1ccc(Cl)cc1` [Compound 301], with 1.5e+06 M⁻¹ s⁻¹. Same read-out and setting: as for `CCC[C@@H](NC(=O)N1C(=O)C(CC)(CC)[C@@H]1Oc1ccc(C(=O)N(C)CCN(C)Cc2ccccc2)cc1)c1ccc(Cl)cc1` [Compound 302], the figure is 1.46e+06 M⁻¹ s⁻¹. Still for that read-out and setting: then `CCC[C@@H](NC(=O)N1C(=O)C(CC)(CC)[C@@H]1Oc1cc(C)c(C(=O)OCCN(CC)CC)c(C)c1)c1ccc(C)cc1` [Compound 305, 2-(diethylamino)ethyl [S-(R*,S*)]-4-[[3,3-diethyl-1-[[[1-(4-methylphenyl)butyl]amino]carbonyl]-4-oxo-2-azetidinyl]oxy]-2,6-dimethyl-benzoate], with 749000 M⁻¹ s⁻¹. Consider `CCC[C@@H](NC(=O)N1C(=O)C(CC)(CC)[C@@H]1Oc1cc(C)c(C(=O)OCCN(C(C)C)C(C)C)c(C)c1)c1ccc(C)cc1` [Compound 306, 2-[bis(1-methylethyl)amino]-ethyl [S-(R*,S*)]-4-[[3,3-diethyl-1-[[[1-(4-methylphenyl)butyl]amino]carbonyl]-4-oxo-2-azetidinyl]oxy]-2,6-dimethyl-benzoate], for which the kinact/KI is 612000 M⁻¹ s⁻¹. Still for that read-out and setting: as for `CCC[C@@H](NC(=O)N1C(=O)C(CC)(CC)[C@@H]1Oc1cc(C)c(C(=O)N(C)CCN(C)C)c(C)c1)c1ccc(C)cc1` [Compound 307], the figure is 352000 M⁻¹ s⁻¹. Still for that read-out and setting: then `CCC[C@@H](NC(=O)N1C(=O)C(CC)(CC)[C@@H]1Oc1cc(C)c(C(=O)N(C)CCN(CC)CC)c(C)c1)c1ccc(C)cc1` [Compound 308], with 377000 M⁻¹ s⁻¹; and `CCC[C@@H](NC(=O)N1C(=O)C(CC)(CC)[C@@H]1Oc1cc(C)c(C(=O)N(CC)CCN(C)C)c(C)c1)c1ccc(C)cc1` [Compound 309], with 398000 M⁻¹ s⁻¹; and `CCC[C@@H](NC(=O)N1C(=O)C(CC)(CC)[C@@H]1Oc1ccc(C(=O)N(C)CCN(C)C)c(O)c1)c1ccc(C)cc1` [Compound 310], with 838000 M⁻¹ s⁻¹. Consider “[S-(R*,S*)]-2-[4-[[(4-Methyl)piperazin-1-yl]carbonyl] phenoxy]-((3,3-diethyl-N-[1-(methylphenyl)butyl]-4-oxo-1-azetidinecarboxamide [Compound 242]”, for which the “Kobs/[I]” value is 1,700,000 per mole per second.
